Laboratory results published in ChEMBL document CHEMBL1130671, “beta Gal(1-->S-4)beta GlcNac--OR: a galactosidase-stable substrate for alpha(1-->3)fucosyltransferase” (Bioorg Med Chem Lett, 1998).
Active and inactive are the calls of the source. The rule behind the calls is not given here.

How the values were obtained:
[1] = organism: Homo sapiens; assay: Kinetic constant for purified human milk alpha(1,3/4) fucosyltransferase
[2] = organism: Homo sapiens; assay: Potency against purified human milk alpha(1,3/4) fucosyltransferase; IA inactive

Km [1]	Potency [2]	Structure (SMILES)
230 µM	–	COC(=O)CCCCCCCCOC1OC(CO)C(SC2OC(CO)C(O)C(O)C2O)C(O)C1NC(C)=O (configuration not stated)
–	inactive	COC(=O)CCCCCCCCOC1OC(CO)C(OC2SC(CO)C(O)C(O)C2O)C(O)C1NC(C)=O (configuration not stated)
